The test system of the data set is male SD rats. Nature of the data set: Single-dose tolerability study, oral gavage. Conditions: single oral dose in corn oil, n = 3/dose. The class given is in vivo, rat. The method, then:
Tolerability, 14-day dose-range-finding, and 90-day subchronic toxicity studies were conducted at Inotiv (Gaithersburg, MD, USA), monitored by the Research Triangle Institute (RTI) (Durham, NC, USA) and sponsored and funded by the EPA. Tolerability studies used four PFAS dose levels plus a control, with the high doses not to exceed 1000 mg/kg (subject to solubility in corn oil, dose volume of 5 or 10 mL/kg) and lower doses separated by threefold spacing. The dose levels for PFHI, MHFPK, and CTFPA were […]. The dose levels for PFNAC were 0, 25, 75, 225, and 667 mg/kg. Tolerability was studied using male rats (n = 3 rats/group) that received a single dose by oral gavage. The rats were euthanized at 48 hours post dosing. The data collected were bodyweight (BW) and BW changes (BWCs), feed consumption (FC) and water consumption (WC), cage-side observations, and physical exams; no necropsies were performed.

For the molecule `O=C(O)C(F)(Cl)C(F)(F)F` (stereo not shown) [CTFPA, 2-Chloro-2,3,3,3-tetrafluoropropanoic acid], the Summary of observations result was “No mortality and no effect on absolute bodyweight gains or water consumption; clinical observations of low activity, decreased bodyweight and decreased feed consumption at high doses”.
Take `C=CC(=O)OCC(F)(F)C(F)(F)C(F)(F)C(F)(F)C(F)(F)C(F)(F)C(F)(F)C(F)F` [PFNAC, 1H,1H,9H-Perfluorononyl acrylate]: the Summary of observations entry was “No mortality and no abnormal clinical observations, some lowering of bodyweight, bodyweight changes, and feed consumption in all the treated groups not reaching statistical significance”.
As for `FC(F)(F)C(F)(F)C(F)(F)C(F)(F)CCI` [PFHI, 1H,1H,2H,2H-Perfluorohexyl iodide], the entry is “No mortality and no abnormal clinical observations, no effect on bodyweight; some bodyweight changes in high-dose group were considered as chemical-related”.
As for `CC(=O)C(F)(F)C(F)(F)C(F)(F)F` [MHFPK, Methyl heptafluoropropyl ketone], the entry is “No mortality. Clinical signs of low activity and minimal ataxia on study day 1 at 1000 mg/kg, with recovery on the following two observation days”.

Values taken from article PMC12298827, “Subchronic Toxicities of Four Per- and Polyfluoroalkyl Substances (PFASs) by Oral Exposure in Sprague–Dawley Rats” (Toxics, 2025).
